What was measured:
[1] = system: type 2 (or type II) diabetes rodent models; conditions: type 2 diabetes rodent models; cited from earlier work
[2] = system: patients with type 2 diabetes inadequately controlled by current oral antidiabetic therapy; assay: Randomized, double-blind, placebo-controlled study of add-on diacerein: glycosylated hemoglobin (HbA1c); format: in vivo, human
From the text: Primary Endpoints: To compare the efficacy of add-on diacerein with no add-on treatment (placebo) on glycosylated hemoglobin (HbA1c) after 24-week double-blind treatment in type 2 DM patients inadequately controlled by previous antidiabetic therapy.
(§1) Subjects: Male or female type 2 DM patients (BMI≦35 kg/m^2) on a stable oral hypoglycemic […] for at least 3 months prior to screening visit. The hemoglobin A1c (HbA1c) measurements taken at a screening visit were between 7% and 12%. Patients enrolled in the study were receiving one or more oral antihyperglycemic agents including sulfonylurea, biguanides, alpha-glucosidase inhibitors, thiazolidinediones (TZDs) and nonsulfonylurea insulin secretagogues.
(§2) Procedure: This was a randomized, double-blind, parallel comparison study comparing 50 mg diacerein versus placebo in patients with type 2 DM inadequately controlled by previous antidiabetic therapy. The starting dose of diacerein was 50 mg once daily every morning for 4 weeks and could be adjusted up to 50 mg twice daily (morning and evening) if patients had become accustomed to the medication. Patients were screened for eligibility four weeks (week-4) prior to entry at baseline (week 0). During this 4-week screening period, the participants continued their previous antidiabetic therapy, dietary habits and other lifestyle habits. In order to be eligible for randomization following the 4-week screening period, patients must not have experienced hypoglycemia and must have had two fasting plasma glucose (FPG) measurements of between 135 to 250 mg/dL. At the end of the screening period, patients who met eligibility requirements were randomly assigned to receive diacerein 50 mg or placebo twice a day for 24 weeks observation. During treatment/observation period, the previous antidiabetic therapy including the class and/or dosage was not changed. Patients were asked to attend the center on eight occasions (screening, baseline, week 4, 8, 12, 16, 20 and 24) during the trial. The total study duration including the screening period for each patient was 28 weeks. There was a two weeks follow-up period after completion of the treatment/observation. […]
Statistical method(s) for efficacy/safety evaluations: The difference (diacerein minus placebo) of HbA1c reduction between the two treatment groups was analyzed by analysis of covariance (ANCOVA) with baseline value as covariate. The corresponding 95% confidence interval was calculated. Within-group changes were also analyzed, with paired t test used to evaluate differences from baseline in each treatment group.
For the efficacy parameters, descriptive statistics were presented by visit. […] The area under the concentration-time curve (AUC) was used for evaluating the parameters measured by oral glucose tolerance test. […]

[3] = system: patients with type 2 diabetes inadequately controlled by current oral antidiabetic therapy; assay: Same clinical study: fasting plasma glucose; format: in vivo, human; conditions: at 24 weeks
From the text: as §1
Procedure: This was a randomized, double-blind, parallel comparison study comparing 50 mg diacerein versus placebo in patients with type 2 DM inadequately controlled by previous antidiabetic therapy. The starting dose of diacerein was 50 mg once daily every morning for 4 weeks and could be adjusted up to 50 mg twice daily (morning and evening) if patients had become accustomed to the medication. Patients were screened for eligibility four weeks (week-4) prior to entry at baseline (week 0). During this 4-week screening period, the participants continued their previous antidiabetic therapy, dietary habits and other lifestyle habits. […]
(§3) For the efficacy parameters, descriptive statistics were presented by visit. […] The area under the concentration-time curve (AUC) was used for evaluating the parameters measured by oral glucose tolerance test.

[4] = system: patients with type 2 diabetes inadequately controlled by current oral antidiabetic therapy; assay: Same clinical study: homeostatic model assessment (HOMA) beta cell function; format: in vivo, human
From the text: as §1
as §2, with “weeks.” for “weeks. There was a two weeks follow-up period after completion of the treatment/observation.”
as §3

[5] = system: patients with type 2 diabetes inadequately controlled by current oral antidiabetic therapy; assay: Same clinical study: cardiovascular safety endpoints (body weight, blood pressure, pulse rate, lipid profiles); format: in vivo, human; set-up: Total Cholesterol, Change / Triglyceride, Change / HDL, Change / LDL, Change: unit not given here
From the text: as §1
(§4) Procedure: This was a randomized, double-blind, parallel comparison study comparing 50 mg diacerein versus placebo in patients with type 2 DM inadequately controlled by previous antidiabetic therapy. The starting dose of diacerein was 50 mg once daily every morning for 4 weeks and could be adjusted up to 50 mg twice daily (morning and evening) if patients had become accustomed to the medication. Patients were screened for eligibility four weeks (week-4) prior to entry at baseline (week 0). During this 4-week screening period, the participants continued their previous antidiabetic therapy, dietary habits and other lifestyle habits. In order to be eligible for randomization following the 4-week screening period, patients must not have experienced hypoglycemia and must have had two fasting plasma glucose (FPG) measurements of between 135 to 250 mg/dL. At the end of the screening period, patients who met eligibility requirements were randomly assigned to receive diacerein 50 mg or placebo twice a day for 24 weeks observation. During treatment/observation period, the previous antidiabetic therapy including the class and/or dosage was not changed. Patients were asked to attend the center on eight occasions (screening, baseline, week 4, 8, 12, 16, 20 and 24) during the trial. The total study duration including the screening period for each patient was 28 weeks. There was a two weeks follow-up period after completion of the treatment/observation. During this follow-up period, patients were followed for adverse events.
For the efficacy parameters, descriptive statistics were presented by visit. Statistical analysis was performed to assess the mean change from baseline. The area under the concentration-time curve (AUC) was used for evaluating the parameters measured by oral glucose tolerance test.

[6] = system: patients with type 2 diabetes inadequately controlled by current oral antidiabetic therapy; assay: Same clinical study: adverse events; format: in vivo, human
Procedure: as §4
Adverse events were summarized according to the Medical Dictionary for Regulatory Activities (MedDRA) adverse event dictionary. The tabulations counted the number of patients reporting individual preferred term adverse events and the total number of patients reporting at least one adverse event per system organ class. If appropriate, the incidence of adverse events was compared for each of the two treatment groups using Fisher's Exact test.

[7] = Week 24, N 28, in mg/dL (unit assumed)
[8] = Week 24, N 28, in mmHg (unit assumed)

Q: With O=C(O)c1cc(O)c2c(c1)C(=O)c1cccc(O)c1C2=O [Rhein, 9,10-dihydro-4,5-dihydroxy-9,10-dioxo-2-anthracenecarboxylic acid] as the compound, how does the “blood glucose concentration control” value [1] read?
A: Its value is “control the blood glucose concentration”.

Q: Which “between-group difference in HbA1c change (diacerein vs placebo)” value ([2]; 24 weeks, P=0.0158) does the source give for CC(=O)Oc1cccc2c1C(=O)c1c(OC(C)=O)cc(C(=O)O)cc1C2=O [diacerein, 4,5-bis(acetyloxy)-9,10-dioxo-2-anthracene carboxylic acid] here?
A: Its value is 0.63 percentage point.

Q: What about the “average absolute difference in HbA1c levels between baseline and 24 weeks (reduction)” value ([2]; add-on diacerein 50 mg twice a day, 24 weeks, within group) of the same compound?
A: Its value is 0.63 percentage point.

Q: What about the “HbA1c absolute reduction versus the placebo group” value ([2]; after 20 weeks, P=0.0223) of the same compound?
A: Its value is 0.60%.

Q: What about the “number of patients who had any reduction in HbA1c levels” value ([2]; at 24 weeks) of the same compound?
A: Its value is 20 of 26.

Q: And the “fasting plasma glucose levels versus placebo group” value [3]?
A: Its value is “consistently lower”.

Q: What about the “within-group change from baseline in HOMA-BETA” value ([4]; over 24 weeks) of the same compound?
A: The value was “significant”.

Q: And the “HOMA beta cell function (HOMA-BETA) course over treatment” value ([4]; over the course of treatment)?
A: The value was “continual improvement”.

Q: And the HOMA-BETA ([4]; week 24)?
A: The HOMA-BETA was 56.26.

Q: What about the “pulse rate, Mean ± SD” value ([5]; Week 24, N 28) of the same compound?
A: The value was 77.18 ± 10.22.

Q: And the “HDL, Mean ± SD” value [5, 7]?
A: The value was 42.25 ± 10.40.

Q: And the “LDL, Mean ± SD” value [5, 7]?
A: The value was 91.64 ± 27.28.

Q: What about the “Total Cholesterol, Mean ± SD” value [5, 7] of the same compound?
A: Its value is 164.61 ± 30.09.

Q: What about the “Triglyceride, Mean ± SD” value [5, 7] of the same compound?
A: The value was 159.18 ± 97.07.

Q: What about the “Systolic blood pressure, Mean ± SD” value [5, 8] of the same compound?
A: The value was 130.32 ± 16.85.

Q: And the “diastolic blood pressure, Mean ± SD” value [5, 8]?
A: The value was 78.86 ± 8.20.

Q: And the “HDL, Change” value ([5]; Week 24 vs baseline)?
A: Its value is −0.96 ± 10.27.

Q: What about the “LDL, Change” value ([5]; Week 24 vs baseline) of the same compound?
A: Its value is −6.09 ± 19.75.

Q: What about the “Systolic blood pressure, Change” value ([5]; Week 24 vs baseline) of the same compound?
A: The value was −0.25 ± 14.38.

Q: What about the “Total Cholesterol, Change” value ([5]; Week 24 vs baseline) of the same compound?
A: The value was −8.46 ± 32.20.

Q: What about the “Triglyceride, Change” value ([5]; Week 24 vs baseline) of the same compound?
A: Its value is −7.57 ± 98.79.

Q: What about the “diastolic blood pressure, Change” value ([5]; Week 24 vs baseline) of the same compound?
A: The value was −1.14 ± 8.78.

Q: What about the “pulse rate, Change” value ([5]; Week 24 vs baseline) of the same compound?
A: The value was 1.46 ± 9.00.

Q: What about the “risks of heart attack and cardiovascular disorders” value ([5]; adding diacerein to current anti-diabetic treatment) of the same compound?
A: The value was “did not increase”.

Q: And the “differences between treatment groups in body weight, blood pressure, pulse rate and lipid profiles” value ([5]; between baseline levels and levels at week 24, diacerein vs placebo)?
A: Its value is “no statistically significant differences”.

Q: What about the “difference between the two groups in the incidence of patients complaining of adverse events” value ([6]; diacerein vs placebo) of the same compound?
A: The value was “No statistically significant difference”.

Q: What about the “patients reporting at least one adverse effect (AE), number” value ([6]; during the study period) of the same compound?
A: Its value is 20 patients.

Q: And the “patients reporting at least one adverse effect (AE), percent” value ([6]; during the study period)?
A: The value was 54.1%.

Q: What about the symptomatic hypoglycemia ([6]; even in patients with a marked improvement in HbA1c levels) of the same compound?
A: The symptomatic hypoglycemia was “not observed”.

Source: US8536152B2, “Methods of using diacerein as an adjunctive therapy for diabetes” (TWi Biotechnology, Inc., priority 2010, dated 2013)
